According to patent publication US12612379B2, “Inhibitors of APOL1 and methods of using same” (Vertex Pharmaceuticals Incorporated, priority 2021, dated 2026):

Each compound was assayed against T1, APOL1 (tet-inducible transgenic APOL1 T-REx-HEK293 cell lines) (Homo sapiens, UniProt O14791) (assay: MultiTox-Fluor Multiplex Cytotoxicity Assay for APOL1 inhibitor properties). Conditions: APOL1 induced with 50 ng/mL tet, 24 hours with compound, ratio of dead to live cells, top concentration 10 μM; APOL1 variant (G0/G1/G2) not stated; read-out: IP50 (nM) (i.e., IC50 for cell proliferation).
T1 sequence (O14791 1-398 S342G/I384M): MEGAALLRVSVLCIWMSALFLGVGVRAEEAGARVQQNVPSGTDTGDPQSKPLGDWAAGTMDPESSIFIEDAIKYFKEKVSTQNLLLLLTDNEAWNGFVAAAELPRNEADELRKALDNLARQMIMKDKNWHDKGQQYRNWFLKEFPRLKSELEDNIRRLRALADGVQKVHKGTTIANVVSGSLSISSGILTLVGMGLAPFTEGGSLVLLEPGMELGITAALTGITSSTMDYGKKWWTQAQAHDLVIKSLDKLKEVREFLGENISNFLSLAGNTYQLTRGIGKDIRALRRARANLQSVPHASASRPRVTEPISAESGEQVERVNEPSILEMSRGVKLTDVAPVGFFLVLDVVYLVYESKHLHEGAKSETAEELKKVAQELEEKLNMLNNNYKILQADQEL
Type: cell-based
Protocol: The MultiTox-Fluor Multiplex Cytotoxicity Assay is a single-reagent-addition, homogeneous, fluorescence assay that measures the number of live and dead cells simultaneously in culture wells. The assay measures cell viability and cytotoxicity by detecting two distinct protease activities. The live-cell protease activity is restricted to intact viable cells and is measured using a fluorogenic, cell-permeant peptide glycyl-phenylalanylamino fluorocoumarin (GF-AFC) substrate. The substrate enters intact cells, where it is cleaved to generate a fluorescent signal proportional to the number of living cells. […] A second, cell-impermeant, fluorogenic peptide substrate (bis-AAF-R110 Substrate) is used to measure dead-cell protease that has been released from cells that have lost membrane integrity. A ratio of dead to live cells is used to normalize data.
Briefly, the tet-inducible transgenic APOL1 T-REx-HEK293 cell lines were incubated with 50 ng/mL tet to induce APOL1 in the presence of 3-(2-(4-fluorophenyl)-1H-indol-3-yl)-N-((3S,4R)-4-hydroxy-2-oxopyrrolidin-3-yl)propenamide at 10.03, 3.24, 1.13, 0.356, 0.129, 0.042, 0.129, 0.0045, 0.0015, 0.0005 μM in duplicate for 24 hours in a humidified 37° C. incubator. The MultiTox reagent was added to each well and placed back in the incubator for an additional 30 minutes. The plate was read on the EnVision plate reader. A ratio of dead to live cells was used to normalize, and data was imported, analyzed, and fit using Genedata Screener (Basel, Switzerland) software. Data was normalized using percent of control, no tet (100% viability), and 50 ng/mL tet treated (0% viability), and fit using Smart Fit. The reagents, methods, and complete protocol for the MultiTox assay are described below.
Human embryonic kidney (HEK293) cell lines containing a tet-inducible expression system (T-REx™; Invitrogen, Carlsbad, CA) and Adeno-associated virus site 1 pAAVS1-Puro-APOL1 G0 or pAAVS1-Puro-APOL1 G1 or pAAVS1-Puro-APOL1 G2 Clones G0 DC2.13, G1 DC3.25, and G2 DC4.44 were grown in a T-225 flask at ˜90% confluency in cell growth media (DMEM, 10% Tet-free FBS, 2 mM L-glutamine, 100 Units/mL penicillin-streptomycin, 5 μg/mL blasticidin S HCl, 1 μg/mL puromycin dihydrochloride). Cells were washed with DPBS and then trypsinized to dissociate from the flask. Media was used to quench the trypsin, cells were then pelleted at 200 g and resuspended in fresh cell assay media (DMEM, 2% Tet-free FBS, 2 mM L-glutamine, 100 Units/mL penicillin-streptomycin). Cells were counted and diluted to 1.17×10^6 cells/mL. 20 μL of cells (23,400/well) were dispensed in every well of a 384-well Poly-D-Lysine coated plate using the Multidrop dispenser. The plates were then incubated at room temperature for one hour.
Tetracycline is needed to induce APOL1 expression. 1 mg/mL tet stock in water was diluted to 250 ng/mL (5×) in cell assay media. 60 μL of cell assay media (no tet control) was dispensed in columns 1 and 24, and 60 μL of 5×tet in 384-PP-round bottom plate was dispensed in columns 2 to 23 with the Multidrop dispenser.
Assay ready plates from the Global Compound Archive were ordered using template 384_APOL1Cell_DR10n2_50 uM_v3. Compounds were dispensed at 200 nL in DMSO. The final top concentration was 10 μM with a 10 point 3-fold dilution in duplicate in the MultiTox assay.
20 μL was transferred from the 5×tet plate to the ARP and mixed, then 5 μL of 5×tet and the compounds were transferred to the cell plate and mixed using the Bravo. The cell plate was placed in the humidified 37° C. 5% CO2 incubator for 24 hours.
The MultiTox-Fluor Multiplex Cytotoxicity Assay was performed in accordance with the manufacturer's protocol. After cells were incubated with tet and compound for 24 hours, 25 μL of 1×MultiTox reagent was added to each well using the Multidrop dispenser; the plates were placed on a plate shaker (600 rpm) for 2 minutes, then centrifuged briefly and placed back in the 37° C. incubator for 30 minutes. […]

`Cc1cc([C@@]2(O)C[C@@H](c3cn(C)nn3)N[C@@H](C)C2)ccc1F` [Compound 12] and `Cc1cc([C@@]2(O)C[C@@H](c3cn(C)nn3)N[C@@H](C)C2)ccc1C(F)(F)F` [Compound 34] cannot be ordered by IC50: 50 to 500 nM for the first, no more than 50 nM for the second.

`C[C@H]1C[C@@](O)(c2ccc(Cl)c(OC(F)(F)F)c2)C[C@@H](c2cn(C)nn2)N1` [Compound 23] and `C[C@H]1C[C@@](O)(c2ccc(Cl)c(C(F)(F)F)c2)C[C@@H](c2cn(C)nn2)N1` [Compound 33] cannot be ordered by IC50: no more than 50 nM for the first, no more than 50 nM for the second.

`C[C@H]1C[C@@](O)(c2cccc(Cl)c2)C[C@@H](c2cn(C)nn2)N1` [Compound 3] and `C[C@H]1C[C@@](O)(c2ccc(Cl)cc2F)C[C@@H](c2cn(C)nn2)N1` [Compound 22] cannot be ordered by IC50: 50 to 500 nM for the first, no more than 50 nM for the second.

`C[C@H]1C[C@@](O)(c2ccc(SC3CC3)cc2)C[C@@H](c2cn(C)nn2)N1` [Compound 49] and `C[C@H]1C[C@@](O)(c2ccc(C3CC3)cc2)C[C@@H](c2cn(C)nn2)N1` [Compound 29] cannot be ordered by IC50: 50 to 500 nM for the first, no more than 50 nM for the second.

`Cc1ccc([C@@]2(O)C[C@@H](c3cn(C)nn3)N[C@@H](C)C2)cc1` [Compound 5] and `C[C@H]1C[C@@](O)(c2ccc(F)cc2)C[C@@H](c2cn(C)nn2)N1` [Compound 15] cannot be ordered by IC50: 50 to 500 nM for the first, no less than 500 nM for the second.

`C[C@H]1C[C@@](C(N)=O)(c2ccc(C(F)(F)F)cc2)C[C@@H](c2cn(C)nn2)N1` [Compound 67, (2S,4S,6S)-2-methyl-6-(1-methyl-1H-1,2,3-triazol-4-yl)-4-(4-(trifluoromethyl)phenyl)piperidine-4-carboxamide] and `C[C@H]1C[C@@](CO)(c2ccc(C(F)(F)F)cc2)C[C@@H](c2cn(C)nn2)N1` [Compound 65, ((2S,4S,6S)-2-methyl-6-(1-methyl-1H-1,2,3-triazol-4-yl)-4-(4-(trifluoromethyl)phenyl)piperidin-4-yl)methanol] fall in the same range of IC50: 50 to 500 nM for the first, 50 to 500 nM for the second.

Going from `C[C@H]1C[C@@](O)(c2ccc3c(c2)OC(F)(F)C3(F)F)C[C@@H](c2cn(C)nn2)N1` [Compound 40] to `C[C@H]1C[C@@](O)(c2ccc3c(c2)OCC3)C[C@@H](c2cn(C)nn2)N1` [Compound 53], the IC50 rises from no more than 50 nM to no less than 500 nM.

`C[C@H]1C[C@@](O)(c2ccc3c(c2)nnn3C)C[C@@H](c2cn(C)nn2)N1` [Compound 55] and `C[C@H]1C[C@@](O)(c2ccc3nnn(C)c3c2)C[C@@H](c2cn(C)nn2)N1` [Compound 57] cannot be ordered by IC50: no less than 500 nM for the first, no less than 500 nM for the second.

`C[C@H]1C[C@@](C#N)(c2ccc(Cl)cn2)C[C@@H](c2cn(C)nn2)N1` [Compound 63, (2S,4S,6S)-4-(5-chloropyridin-2-yl)-2-methyl-6-(1-methyl-1H-1,2,3-triazol-4-yl)piperidine-4-carbonitrile] and `C[C@H]1C[C@@](O)(c2cc(F)cc(Cl)c2)C[C@@H](c2cn(C)nn2)N1` [Compound 10] cannot be ordered by IC50: no less than 500 nM for the first, 50 to 500 nM for the second.

`Cc1nn(C)c2ccc([C@@]3(O)C[C@@H](c4cn(C)nn4)N[C@@H](C)C3)cc12` [Compound 59] and `C[C@H]1C[C@@](O)(c2ccc3cnn(C)c3c2)C[C@@H](c2cn(C)nn2)N1` [Compound 58] cannot be ordered by IC50: 50 to 500 nM for the first, no more than 50 nM for the second.

`CC1CC(O)(c2ccc(C(F)(F)F)cc2)CC(c2c[nH]nn2)N1` (centres unmarked) [Compound 62, 2-methyl-6-(1H-triazol-4-yl)-4-[4-(trifluoromethyl)phenyl]piperidin-4-ol] and `C[C@H]1C[C@@](O)(c2ccc(C(C)(F)F)cc2)C[C@@H](c2cn(C)nn2)N1` [Compound 39] cannot be ordered by IC50: no more than 50 nM for the first, no more than 50 nM for the second.

Compared with `C[C@H]1C[C@@](O)(c2ccc3cn[nH]c3c2)C[C@@H](c2cn(C)nn2)N1` [Compound 52], `C[C@H]1C[C@@](O)(c2ccc3cn(C)nc3c2)C[C@@H](c2cn(C)nn2)N1` [Compound 54] is higher in IC50: no more than 50 nM for the first, no less than 500 nM for the second. The first is the more potent here.

`C[C@H]1C[C@@](O)(c2ccc(C(F)(F)F)c(Cl)c2)C[C@@H](c2cn(C)nn2)N1` [Compound 36] and `C[C@H]1C[C@@](O)(c2ccc(C(F)(F)F)c(F)c2)C[C@@H](c2cn(C)nn2)N1` [Compound 25] cannot be ordered by IC50: no more than 50 nM for the first, no more than 50 nM for the second.

`C[C@H]1C[C@@H](c2ccc(C(F)(F)F)cc2)C[C@@H](c2cn(C)nn2)N1` [Compound 66, (2S,4R,6S)-2-methyl-6-(1-methyltriazol-4-yl)-4-[4-(trifluoromethyl)phenyl]piperidine] and `C[C@H]1C[C@@](O)(c2ccc(C(F)(F)C(F)(F)F)cc2)C[C@@H](c2cn(C)nn2)N1` [Compound 47] cannot be ordered by IC50: 50 to 500 nM for the first, no more than 50 nM for the second.

`C[C@H]1C[C@@](O)(c2ccc3c(c2)C2(CCO3)CC2)C[C@@H](c2cn(C)nn2)N1` [Compound 32] and `C[C@H]1C[C@@](O)(c2ccc(C(F)(F)F)c(O)c2)C[C@@H](c2cn(C)nn2)N1` [Compound 43] cannot be ordered by IC50: 50 to 500 nM for the first, no more than 50 nM for the second.

`CC(C)c1ccc([C@@]2(O)C[C@@H](c3cn(C)nn3)N[C@@H](C)C2)cc1` [Compound 8] and `C[C@H]1C[C@@](O)(c2ccc(C(F)F)cc2)C[C@@H](c2cn(C)nn2)N1` [Compound 38] cannot be ordered by IC50: no more than 50 nM for the first, no more than 50 nM for the second.

`C[C@H]1C[C@@](O)(c2ccc(Cl)c(C(=O)N(C)C)c2)C[C@@H](c2cn(C)nn2)N1` [Compound 24] and `COc1cc([C@@]2(O)C[C@@H](c3cn(C)nn3)N[C@@H](C)C2)ccc1C(F)(F)F` [Compound 28] cannot be ordered by IC50: 50 to 500 nM for the first, no more than 50 nM for the second.

`CC1CC(O)(c2cccc(Cl)c2)CC(c2cnn(CCS(C)(=O)=O)c2)N1` (centres unmarked) [Compound 2] and `C[C@@H]1C[C@](O)(c2cccc(Cl)c2)C[C@H](C)N1` [Compound 1] cannot be ordered by IC50: 50 to 500 nM for the first, no less than 500 nM for the second.

`C[C@H]1C[C@@](O)(c2ccc(C(F)(F)F)nc2)C[C@@H](c2cn(C)nn2)N1` [Compound 37] and `C[C@H]1C[C@@](O)(C2CCCCC2)C[C@@H](c2cn(C)nn2)N1` [Compound 60, (2S,4S,6S)-4-cyclohexyl-2-methyl-6-(1-methyltriazol-4-yl)piperidin-4-ol] cannot be ordered by IC50: 50 to 500 nM for the first, no less than 500 nM for the second.
